The results in this text go back to article PMC6198068, “Discovery of a Novel Nav1.7 Inhibitor From Cyriopagopus albostriatus Venom With Potent Analgesic Efficacy” (Frontiers in Pharmacology, 2018).

The target of one experiment is T1, Nav1.6 (Homo sapiens, UniProt Q9UQD0).
T1 construct: expressed in transfected cells; host or cells: HEK293T
The experiment in a line: Whole-cell patch-clamp, Nav1.6 in HEK293T cells. It counts as cell-based. The following applies: mean ± SEM. The text has this:
(§1) The cDNA genes encoding rat Nav1.4 and human Nav1.7 were subcloned into vectors pRGB4 and pcDNA3.1-mod, respectively. Mutations of rNav1.4 (N655D, Q657E, and N655D/Q657E) and hNav1.7 (D816N, E818Q, and D816N/E818Q) were constructed using the Gene Tailor Site-Directed Mutagenesis system (Invitrogen, Carlsbad, CA, United States), according to the manufacturer’s instructions. Nav1.2–Nav1.7 and mutant plasmids together with eGFP were transiently transfected into HEK293T cells while Nav1.8 together with eGFP was transiently transfected into ND7/23 cells by Lipofectamine 2000 (Invitrogen, Carlsbad, CA, United States). Additionally, plasmids β1- and β2-eGFP encoding the human β1 and β2 subunits, respectively, were co-transfected with those encoding WT Nav1.7 and Nav1.7 mutations in HEK293T cells. […] Cells with green fluorescent protein fluorescence were selected for whole-cell patch-clamp recordings 24 h after transfection.
(§2) Whole-cell patch-clamp recordings were performed at room temperature (20–25°C) using an EPC 10 USB Patch Clamp Amplifier (HEKA, Elektronik, Lambrecht, Germany). […] Data was analyzed by software Igo Pro 6.10A (WaveMetrics, Lake Oswego, OR, United States), SigmaPlot 10.0 (Sigma-Aldrich, St. Louis, MO, United States), OriginPro 8 (OriginLab Corp., Northampton, MA, United States), and GraphPad Prism 5 (GraphPad Software, San Diego, CA, United States). […]

Another experiment relates to Nav1.8. The experiment can be described thus: Whole-cell patch-clamp, Nav1.8 in ND7/23 cells. It counts as cell-based. To be noted: up to 10 μM, depolarization to +20 mV.
Text: as §1, §2
In general terms: Patch clamp records ionic current or voltage across a cell membrane.

A further experiment addresses T2, Nav1.7 (Homo sapiens, UniProt Q15858).
T2 construct: expressed in transfected cells; host or cells: HEK293T
The experiment in a line: Steady-state slow inactivation of Nav1.7. Type of experiment: cell-based. The following applies: 0.2 μM; 15 s pre-pulses; control −52.62 ± 3.79 mV; P < 0.01 paired t-test; mean ± SEM, n = 6–11 cells.
Text: as §1, with “States).” for “States). Additionally, plasmids β1- and β2-eGFP encoding the human β1 and β2 subunits, respectively, were co-transfected with those encoding WT Nav1.7 and Nav1.7 mutations in HEK293T cells.”
as §2
Fast inactivation time constants were calculated by fitting current decay traces with a single exponential function using the I–V protocol described above. […]

The test system of the next experiment is Nav1.4/N655D. The experiment in a line: Whole-cell patch-clamp, Nav1.4/N655D in HEK293T cells. Type of experiment: cell-based, rat. The following applies: 1 μM, n = 4–5 cells.
Text: as §1, §2

The subject of another experiment is Nav1.7/D816N/E818Q. The experiment can be described thus: Whole-cell patch-clamp, Nav1.7/D816N/E818Q in HEK293T cells. Type of experiment: cell-based, human. The following applies: 1 μM, n = 5 cells.
Text: as §1, §2

Where a SMILES comes first, the peptide text is derived from it. Bridges are numbered along the chain shown (N, C = ends).

T1 sequence (Q9UQD0 whole entry): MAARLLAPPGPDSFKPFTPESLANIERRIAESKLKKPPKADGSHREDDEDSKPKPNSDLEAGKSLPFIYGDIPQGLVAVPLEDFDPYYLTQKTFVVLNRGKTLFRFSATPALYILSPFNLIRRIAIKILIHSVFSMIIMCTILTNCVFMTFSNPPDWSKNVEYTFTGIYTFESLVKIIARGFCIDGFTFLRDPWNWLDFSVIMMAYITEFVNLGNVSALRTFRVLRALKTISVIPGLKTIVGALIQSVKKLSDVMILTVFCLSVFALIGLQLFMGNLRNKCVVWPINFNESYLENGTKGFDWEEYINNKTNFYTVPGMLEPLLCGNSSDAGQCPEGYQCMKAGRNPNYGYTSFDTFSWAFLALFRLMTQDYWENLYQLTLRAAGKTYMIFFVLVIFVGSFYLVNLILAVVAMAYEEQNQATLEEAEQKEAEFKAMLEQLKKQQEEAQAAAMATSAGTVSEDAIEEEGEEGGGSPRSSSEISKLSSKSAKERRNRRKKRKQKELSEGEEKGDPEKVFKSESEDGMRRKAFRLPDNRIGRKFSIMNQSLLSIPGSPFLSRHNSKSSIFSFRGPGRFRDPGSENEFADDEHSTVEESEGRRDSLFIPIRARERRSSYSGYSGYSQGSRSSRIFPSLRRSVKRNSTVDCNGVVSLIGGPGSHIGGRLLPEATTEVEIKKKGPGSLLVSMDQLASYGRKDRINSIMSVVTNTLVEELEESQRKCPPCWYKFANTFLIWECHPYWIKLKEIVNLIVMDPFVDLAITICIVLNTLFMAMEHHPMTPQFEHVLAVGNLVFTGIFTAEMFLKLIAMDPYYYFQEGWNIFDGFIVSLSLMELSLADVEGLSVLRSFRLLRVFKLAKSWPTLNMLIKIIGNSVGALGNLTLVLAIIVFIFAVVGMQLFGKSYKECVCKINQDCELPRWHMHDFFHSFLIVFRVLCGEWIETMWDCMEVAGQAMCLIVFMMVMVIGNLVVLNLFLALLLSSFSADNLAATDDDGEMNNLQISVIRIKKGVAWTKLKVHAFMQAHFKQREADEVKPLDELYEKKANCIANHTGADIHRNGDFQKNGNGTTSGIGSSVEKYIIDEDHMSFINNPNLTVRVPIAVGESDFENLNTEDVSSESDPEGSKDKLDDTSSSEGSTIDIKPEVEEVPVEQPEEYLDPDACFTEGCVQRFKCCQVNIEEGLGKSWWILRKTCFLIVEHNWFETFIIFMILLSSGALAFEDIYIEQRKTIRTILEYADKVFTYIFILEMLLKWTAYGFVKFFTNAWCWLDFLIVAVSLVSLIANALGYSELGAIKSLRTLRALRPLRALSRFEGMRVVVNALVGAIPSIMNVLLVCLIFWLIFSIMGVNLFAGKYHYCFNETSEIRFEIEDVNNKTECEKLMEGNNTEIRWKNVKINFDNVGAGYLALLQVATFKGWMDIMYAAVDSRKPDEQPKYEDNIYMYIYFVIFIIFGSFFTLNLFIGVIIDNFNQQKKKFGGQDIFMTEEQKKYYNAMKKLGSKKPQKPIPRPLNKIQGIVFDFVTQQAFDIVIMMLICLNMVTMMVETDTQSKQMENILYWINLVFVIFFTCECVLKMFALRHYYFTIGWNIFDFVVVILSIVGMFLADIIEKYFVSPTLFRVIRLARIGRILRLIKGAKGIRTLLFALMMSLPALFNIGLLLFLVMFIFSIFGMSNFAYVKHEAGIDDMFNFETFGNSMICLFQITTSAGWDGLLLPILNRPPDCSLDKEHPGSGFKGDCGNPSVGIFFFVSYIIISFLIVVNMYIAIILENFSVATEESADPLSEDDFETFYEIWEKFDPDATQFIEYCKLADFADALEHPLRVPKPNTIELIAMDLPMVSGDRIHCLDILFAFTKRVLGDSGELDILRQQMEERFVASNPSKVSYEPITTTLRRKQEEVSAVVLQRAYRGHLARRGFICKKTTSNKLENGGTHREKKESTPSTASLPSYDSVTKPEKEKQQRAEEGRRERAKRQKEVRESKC
T2 sequence (O60939 30-215): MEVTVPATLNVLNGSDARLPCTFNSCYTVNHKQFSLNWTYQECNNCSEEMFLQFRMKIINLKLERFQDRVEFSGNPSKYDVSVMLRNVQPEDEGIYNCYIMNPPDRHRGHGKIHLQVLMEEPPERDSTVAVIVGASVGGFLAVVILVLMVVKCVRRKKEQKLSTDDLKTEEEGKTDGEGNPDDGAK
T2 sequence (Q15858 other isoform, or with tags, fused parts or gaps): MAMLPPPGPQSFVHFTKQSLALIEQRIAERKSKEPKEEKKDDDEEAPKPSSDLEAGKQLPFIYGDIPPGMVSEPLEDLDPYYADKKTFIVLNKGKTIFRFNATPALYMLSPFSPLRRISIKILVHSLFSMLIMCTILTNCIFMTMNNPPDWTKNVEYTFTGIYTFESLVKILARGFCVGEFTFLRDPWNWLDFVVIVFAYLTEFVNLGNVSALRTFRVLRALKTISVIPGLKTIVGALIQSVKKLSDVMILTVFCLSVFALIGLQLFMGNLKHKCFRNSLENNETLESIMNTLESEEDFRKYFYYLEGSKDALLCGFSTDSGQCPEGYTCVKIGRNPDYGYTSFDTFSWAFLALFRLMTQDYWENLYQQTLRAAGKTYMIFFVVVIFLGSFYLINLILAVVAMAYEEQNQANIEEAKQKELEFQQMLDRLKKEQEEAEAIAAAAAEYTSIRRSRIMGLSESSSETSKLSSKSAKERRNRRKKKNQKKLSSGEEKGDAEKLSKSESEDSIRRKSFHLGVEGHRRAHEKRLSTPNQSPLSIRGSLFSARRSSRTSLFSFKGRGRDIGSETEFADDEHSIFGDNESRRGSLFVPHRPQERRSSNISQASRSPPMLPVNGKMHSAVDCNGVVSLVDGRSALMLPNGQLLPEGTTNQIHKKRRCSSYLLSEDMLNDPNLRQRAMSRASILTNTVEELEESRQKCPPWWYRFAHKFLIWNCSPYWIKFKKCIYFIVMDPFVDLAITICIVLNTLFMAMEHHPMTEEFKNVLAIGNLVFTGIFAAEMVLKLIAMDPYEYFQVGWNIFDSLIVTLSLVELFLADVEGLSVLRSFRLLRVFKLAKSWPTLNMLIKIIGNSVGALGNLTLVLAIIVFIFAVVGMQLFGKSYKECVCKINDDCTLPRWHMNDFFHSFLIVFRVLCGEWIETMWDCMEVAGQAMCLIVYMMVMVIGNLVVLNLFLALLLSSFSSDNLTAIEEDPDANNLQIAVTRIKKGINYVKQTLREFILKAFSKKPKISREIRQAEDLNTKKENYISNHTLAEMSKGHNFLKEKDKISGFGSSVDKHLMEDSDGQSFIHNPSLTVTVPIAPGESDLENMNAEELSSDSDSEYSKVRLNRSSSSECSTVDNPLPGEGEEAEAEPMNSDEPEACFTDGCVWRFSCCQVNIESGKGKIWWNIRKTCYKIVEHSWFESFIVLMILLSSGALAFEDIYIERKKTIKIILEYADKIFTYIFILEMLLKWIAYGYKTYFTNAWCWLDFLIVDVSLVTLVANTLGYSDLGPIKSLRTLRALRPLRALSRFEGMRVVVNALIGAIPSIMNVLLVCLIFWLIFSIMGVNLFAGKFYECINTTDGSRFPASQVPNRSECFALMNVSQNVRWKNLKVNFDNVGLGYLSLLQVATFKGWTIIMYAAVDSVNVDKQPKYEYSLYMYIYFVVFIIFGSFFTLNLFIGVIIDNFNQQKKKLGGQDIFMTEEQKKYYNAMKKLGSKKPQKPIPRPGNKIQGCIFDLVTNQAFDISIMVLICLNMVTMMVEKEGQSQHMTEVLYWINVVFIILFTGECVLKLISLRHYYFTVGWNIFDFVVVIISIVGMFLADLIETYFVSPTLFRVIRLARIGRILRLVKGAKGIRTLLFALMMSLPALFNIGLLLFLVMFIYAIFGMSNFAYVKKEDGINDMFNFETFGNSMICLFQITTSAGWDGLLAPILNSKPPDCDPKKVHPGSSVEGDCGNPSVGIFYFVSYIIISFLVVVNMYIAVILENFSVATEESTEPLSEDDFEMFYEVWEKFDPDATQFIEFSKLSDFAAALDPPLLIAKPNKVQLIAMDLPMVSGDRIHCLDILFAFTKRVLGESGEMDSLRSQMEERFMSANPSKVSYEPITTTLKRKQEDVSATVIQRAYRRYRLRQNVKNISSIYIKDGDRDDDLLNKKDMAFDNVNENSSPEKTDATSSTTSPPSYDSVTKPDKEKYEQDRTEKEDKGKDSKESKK
T2 sequence (Q07699 19-218, further chain): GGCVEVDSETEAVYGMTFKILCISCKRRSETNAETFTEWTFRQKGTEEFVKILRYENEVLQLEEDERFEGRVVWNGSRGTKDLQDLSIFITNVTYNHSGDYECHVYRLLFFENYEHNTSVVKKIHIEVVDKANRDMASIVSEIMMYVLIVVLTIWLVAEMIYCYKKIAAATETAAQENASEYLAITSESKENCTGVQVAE

In general, IC50 refers to the concentration that gives 50% inhibition. High values mean a need for much substance, low ones inhibition by little substance. For `CC(C)C[C@H](NC(=O)[C@H](CC(=O)O)NC(=O)[C@H](Cc1ccc(O)cc1)NC(=O)[C@H](CCCCN)NC(=O)[C@@H]1CSSC[C@@H]2NC(=O)[C@H](CCCCN)NC(=O)[C@H](CC(=O)O)NC(=O)[C@H](CC(N)=O)NC(=O)[C@H](CO)NC(=O)[C@@H]3CCCN3C(=O)[C@H](CC(N)=O)NC(=O)[C@@H]3CSSC[C@H](NC(=O)[C@H](C(C)C)NC(=O)[C@H](CC(C)C)NC(=O)[C@H](CO)NC(=O)[C@H](CO)NC(=O)[C@H](CO)NC(=O)[C@H](CCCCN)NC(=O)[C@H](CSSC[C@H](NC(=O)[C@H](C)N)C(=O)N[C@@H](CC(C)C)C(=O)NCC(=O)N[C@@H](Cc4ccccc4)C(=O)NCC(=O)N[C@@H](CCC(=O)O)C(=O)N[C@@H](CCCCN)C(=O)N3)NC2=O)C(=O)N[C@@H](CO)C(=O)N[C@@H](CCC(N)=O)C(=O)N[C@@H](CCCCN)C(=O)N[C@@H](Cc2c[nH]cn2)C(=O)N[C@@H](CCCCN)C(=O)N[C@@H](Cc2c[nH]c3ccccc23)C(=O)N1)C(=O)O` [Ca2a] (H-ACLGFGEKCNPSNDKCCKSSSLVCSQKHKWCKYDL-OH; disulfide 2-17, 9-24, 16-31 (inferred); N-terminus and C-terminus assumed), the “decrease of Nav1.6 current amplitude” value at Nav1.6 (1 μM, 50 ms to −10 mV from −100 mV) turned out to be 78.7 ± 2.9%. Further, the IC50 at Nav1.6 (whole-cell patch-clamp, n = 4–7 cells per data point) was 314 ± 6.3 nM. Further, the “inhibitory effect on Nav1.8 currents” value with Nav1.8 is recorded as “no inhibitory effects”. The “steady-state slow inactivation potential of Nav1.7” value on Nav1.7 was −72.00 ± 2.76 mV. Besides, in the experiment on Nav1.4/N655D, the “inhibitory effect on Nav1.4/N655D” value is listed as “no inhibitory effect”. Moreover, the “activity on Nav1.7/D816N/E818Q” value in the experiment with Nav1.7/D816N/E818Q is on record as “no activity”.
